According to article PMC12036875, “Mitochondria-targeting natural product rhein conjugated with dichloroacetate as the dual inhibitor of glycolysis and oxidative phosphorylation to off energize cancer cells and induce ROS storm” (Theranostics, 2025):
Read-outs that look alike come from different tables or passages of the source.

Experiments:
4T1 cells [1] = assay: MTT cytotoxicity assay; assay type: cell-based; settings: Mus musculus, read-out: IC50 4T1
Protocol: (§1) The cytotoxicity of Rhein-DCA conjugate was performed on various cancer cell lines, including breast cancer (4T1 and MCF-7), cervical cancer (HeLa), and colorectal carcinoma (CT26) via 3-(4,5)-dimethylthiahiazo(-z-y1)-3,5-di-phenytetrazoliumromide (MTT) assay. […] Moreover, the cytotoxicity of these compounds (rhein, DCA, R + D and Rhein-DCA) for normal cells (293T) was lower than that of those tested cancer cells.
(§2) Mouse breast cancer 4T1 cells and Mouse colorectal carcinoma CT26 cells were purchased from Haixing Biosciences Co., Ltd (Jiangsu, P. R. China), and cultured in complete RPMI-1640 medium supplemented with 10% FBS and 1% Penicillin / Streptomycin in a cell incubator (37 °C in 95% air and 5% CO2 atmosphere). Human breast cancer MCF-7 cells, Human cervical carcinoma HeLa cells and Human embryonic kidney 293T cells were obtained from the China Center for Type Culture Collection (CCTCC). MCF-7 and HeLa cells were cultured in DMEM medium containing 10% FBS and 1% Penicillin / Streptomycin and then cultured in a cell incubator (37 °C in 95% air and 5% CO2 atmosphere).
(§3) The cytotoxicity of rhein, DCA, the mixture of rhein and DCA (R + D) and Rhein-DCA conjugate was evaluated on HeLa, MCF-7, CT26, 4T1 and 293T cell lines by MTT assay. Cells were seeded in 96-well plates at a density of 3 × 10^3 cells per well in the corresponding complete culture medium and cultured for 24 h. Then cells were incubated with 200 μL fresh medium containing the respective desired concentrations of rhein, DCA, R + D (with the concentrations being 100, 66.7, 44.4, 29.6, 19.8, 13.2, 8.8, 5.9, 3.9, 2.6, 1.7 and 1.2 μM, respectively) and Rhein-DCA conjugate (with the concentrations being 29.6, 19.8, 13.2, 8.8, 5.9, 3.9, 2.6, 1.7, 1.2, 0.8, 0.5 and 0.3 μM, respectively). After 72 h of incubation, 20 μL of MTT solution (5 mg/mL) was added to each well and the plates were cultured for another 4 h. The medium was carefully removed, and 110 μL of DMSO was added into per well to dissolve the formazan. The absorption densities at 590 nm were recorded with microplate reader. The quoted IC50 values were presented as the mean ± standard deviation.

CT26 cells = assay: MTT cytotoxicity assay; assay type: cell-based; settings: Mus musculus, CT26, 72 h, read-out: IC50 CT26
Protocol: as §1, §2, §3

HeLa cells = assay: MTT cytotoxicity assay; assay type: cell-based; settings: Homo sapiens
Protocol: as §1, §2, §3

MCF-7 cells = assay: MTT cytotoxicity assay; assay type: cell-based; settings: Homo sapiens, read-out: IC50 MCF-7
Protocol: as §1, §2, §3

4T1 cells [2] = assay: RNA sequencing and analysis (DEGs, GSEA); assay type: cell-based, Mouse; settings: 6.25 μM, 12 h, RNA-seq
Protocol: To understand the effect of Rhein-DCA conjugate on the energy flow of glycolysis in cancer cells, we performed RNA sequencing analysis on 4T1 cell lines to analyze the genome. After various treatments for 12 h, all samples were clustered via principal component analysis (PCA) (Figure S12). […] Furthermore, the DEGs involved in glycolysis pathway of kyoto encyclopedia of genes and genomes (KEGG) databases were analyzed (Figure 2G). […] But as a pyruvate analogue, DCA led to the inactivation of PDK1 by binding to the pyruvate-binding pocket of PDK1 protein, together with down-regulation of PDK1 gene, thus leading more prominent restraint of glycolysis.
We next investigated whether the OXPHOS route would be further undermined by Rhein-DCA conjugate when the glycolysis was blocked. […] Thus, it was imperative to simultaneously halt glycolysis and OXPHOS to induce energy obstruction and apoptosis.
4T1 cells were seeded in 10 cm culture dishes and cultured until the confluency reached approximately 80%. The cells were treated with PBS, DCA, rhein, and Rhein-DCA conjugate (at a concentration of 6.25 μM) for 12 h. After that, the cells were collected and suspended in TRIzol Reagent for RNA sequencing. All samples were sent to Shanghai Majorbio Bio-pharm Biotechnology Co., Ltd. (Shanghai, P. R. China) for detection. Total RNA was extracted from 4T1 cells and was measured using the nanodrop-2000. The quality of RNA was evaluated by agarose gel electrophoresis and analyzed with Agilent5300. cDNA libraries were constructed according to the Illumina stranded mRNA prep, Ligation (USA) protocol. The DNA was further enriched by PCR amplification and purified by 2% Low Range Ultra Agarose. Clusters were generated by Bridge PCR on the cBot after being quantified by Qubit 4.0, and sequenced with NovaSeq X Plus platform (PE150). The differential expression analysis of various gene expressions was performed using DESeq2. The GO functional enrichment and KEGG pathway analysis were conducted on Goatools and Python scipy software.

4T1 tumor tissue = assay: IHC of pPDHA1-Ser293 and IF of HMGB1 in tumor slices; assay type: in vivo, Balb/c mice; settings: 20 mg/kg oral, 24 days; for pPDHA1-Ser293 protein level in tumor tissue (IHC): vs vehicle
Source text: The TAMs are the prominent components in the TEM and play a critical role in tumoral immunosuppression. Repolarization of protumor M2 phenotype into antitumor M1 phenotype is promising for malignant tumors. On the one hand, as a key metabolite fueling M2 polarization, lactate is very important in modulating the polarization state of macrophages within the tumor microenvironment. To verify that Rhein-DCA conjugate reprogrammed the metabolism of cells on solid tumors, we analyzed the expression of pPDHA1-Ser^293 protein in tumor tissues with immunohistochemical staining (IHC) (Figure 7A). […] The end product lactate of glycolysis decreased 20%, consistent with DCA's ability to reverse the Warburg effect. […] On the other hand, the ICD behavior of cancer cells also can activate TAMs into M1 polarization. Then, the release of HMGB1 was evaluated to assess the ICD effect in vivo with immunofluorescence staining (IF) (Figure 7C).
After 24 days, the mice were euthanized, and then tumors were excised to photographing and weighting. The tumors in each group were performed with TUNEL (green fluorescence) and H&E assay. In addition, immunohistochemical staining was conducted on the tumor tissue to determine the pPDHA1-Ser^293 protein level. Besides, immunofluorescence staining was used to detect the expression of HMGB1 protein in the tumor.

[3] = 4T1, 72 h treatment, MTT, mean ± S.D., n = 3
[4] = 72 h treatment, MTT, mean ± S.D., n = 3
[5] = 72 h treatment, MTT, mean ± S.D., n = 3, read-out: IC50 HeLa
[6] = MCF7, 72 h treatment, MTT, mean ± S.D., n = 3

O=C(O)C(Cl)Cl [DCA, Dichloroacetate]
IC50 (4T1 cells [1]; 4T1, 72 h): > 100 µM | IC50 (CT26 cells): > 100 µM | IC50 (HeLa cells; 72 h, read-out: IC50 HeLa): > 100 µM | IC50 (MCF-7 cells; MCF7, 72 h): > 100 µM | PDK1 gene expression (4T1 cells [2]): down-regulated | HMGB1 localisation in tumor slices (IF) (4T1 tumor tissue): almost all of HMGB1 overlapped with nucleus | pPDHA1-Ser293 protein level in tumor tissue (IHC) (4T1 tumor tissue): obvious down-expression

O=C(O)c1cc(O)c2c(c1)C(=O)c1cccc(O)c1C2=O [Rhein, 4,5-dihydroxyanthraquinone-2-carboxylic acid]
IC50 (4T1 cells [1]; [3]): 41.2 ± 1 µM | IC50 (CT26 cells; [4]): 42.1 ± 3.3 µM | IC50 (HeLa cells; [5]): 68.3 ± 5.1 µM | IC50 (MCF-7 cells; [6]): 79.9 ± 2.3 µM | PDK1 gene expression (4T1 cells [2]): down-regulation | HMGB1 localisation in tumor slices (IF) (4T1 tumor tissue): almost all of HMGB1 overlapped with nucleus | pPDHA1-Ser293 protein level in tumor tissue (IHC) (4T1 tumor tissue): did not significantly alter

O=C(OCCOC(=O)C(Cl)Cl)c1cc(O)c2c(c1)C(=O)c1cccc(O)c1C2=O [Rhein-DCA]
IC50 (4T1 cells [1]; [3]): 1.7 µM | IC50 (CT26 cells; [4]): 2.7 ± 0.1 µM | IC50 (HeLa cells; [5]): 6.7 µM | IC50 (MCF-7 cells; [6]): 3.9 µM | PDK1 gene expression (4T1 cells [2]): significant down-regulation | HMGB1 localisation in tumor slices (IF) (4T1 tumor tissue): mostly appeared outside the nucleus with weak intensity | pPDHA1-Ser293 protein level in tumor tissue (IHC) (4T1 tumor tissue): down-expression
